Data published in ChEMBL document CHEMBL1138459 (Bioorg Med Chem Lett, 2009).
The source made the active and inactive calls. No cut-off for these calls is given here.

Assays:
Mus musculus [1] = test: Antidiabetic activity in db/db mouse diabetic model assessed as reduction in post prandial blood glucose level at 3 mg/kg/day; format: functional, organism-based
Rattus norvegicus [2] = test: Antidiabetic activity in Zucker fa/fa rat assessed as HOMA-insulin resistance index at 3 mg/kg/day; format: functional, organism-based
Mus musculus [3] = test: Antidiabetic activity in db/db mouse diabetic model assessed as reduction in post prandial blood glucose level at 0.3 mg/kg/day; format: functional, organism-based
Rattus norvegicus [4] = test: Antidiabetic activity in Zucker fa/fa rat assessed as glucose infusion rate at 3 mg/kg/day after 7 days by hyperinsulinemic-euglycemic clamp study; format: functional, organism-based
[5] = target: T1, Peroxisome proliferator-activated receptor alpha (Homo sapiens, UniProt Q07869); test: biochemical
T1 sequence (Q07869 whole entry): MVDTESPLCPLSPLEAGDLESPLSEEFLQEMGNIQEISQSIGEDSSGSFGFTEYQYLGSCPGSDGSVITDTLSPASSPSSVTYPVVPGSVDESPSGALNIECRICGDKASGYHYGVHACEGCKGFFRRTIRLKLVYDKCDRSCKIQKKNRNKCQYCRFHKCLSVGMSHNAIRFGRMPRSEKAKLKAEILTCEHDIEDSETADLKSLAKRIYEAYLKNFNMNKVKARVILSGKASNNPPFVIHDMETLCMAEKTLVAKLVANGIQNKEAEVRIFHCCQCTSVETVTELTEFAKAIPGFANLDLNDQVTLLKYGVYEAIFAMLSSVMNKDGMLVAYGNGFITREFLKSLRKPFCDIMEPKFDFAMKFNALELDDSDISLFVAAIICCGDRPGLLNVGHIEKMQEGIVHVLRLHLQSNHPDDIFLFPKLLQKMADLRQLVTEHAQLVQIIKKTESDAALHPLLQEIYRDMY

[6] = target: T1, Peroxisome proliferator-activated receptor alpha
[7] = target: T2, Peroxisome proliferator-activated receptor delta (Homo sapiens, UniProt Q03181)
T2 sequence (Q03181 whole entry): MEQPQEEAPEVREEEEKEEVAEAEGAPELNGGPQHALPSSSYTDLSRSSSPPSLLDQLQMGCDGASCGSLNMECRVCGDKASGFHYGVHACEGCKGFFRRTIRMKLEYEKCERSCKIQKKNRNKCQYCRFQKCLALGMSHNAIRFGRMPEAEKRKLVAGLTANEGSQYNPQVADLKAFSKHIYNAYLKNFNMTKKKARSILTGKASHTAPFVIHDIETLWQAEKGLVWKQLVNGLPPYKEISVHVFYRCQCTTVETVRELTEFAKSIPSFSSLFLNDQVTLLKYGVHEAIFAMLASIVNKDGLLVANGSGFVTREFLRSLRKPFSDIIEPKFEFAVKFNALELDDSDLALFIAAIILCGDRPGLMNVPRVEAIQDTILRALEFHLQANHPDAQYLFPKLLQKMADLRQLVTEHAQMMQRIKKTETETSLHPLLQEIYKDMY

Rattus norvegicus [8] = test: Antidiabetic activity in Zucker fa/fa rat assessed as fasting plasma insulin level at 10 mg/kg/day; format: functional
Mus musculus [9] = test: Increase in plasma HDLC level in human ApoA1 transgenic mouse model at 10 mg/kg/day after 12 days by FPLC method; format: functional, organism-based
Rattus norvegicus [10] = test: Antidiabetic activity in Zucker fa/fa rat assessed as HOMA-insulin resistance index at 10 mg/kg/day; format: functional, organism-based
Rattus norvegicus [11] = test: Antidiabetic activity in Zucker fa/fa rat assessed as glucose infusion rate at 10 mg/kg/day after 7 days by hyperinsulinemic-euglycemic clamp study; format: functional, organism-based
Mus musculus [12] = test: Increase in plasma HDLC level in human ApoA1 transgenic mouse model at 300 mg/kg/day after 12 days by FPLC method; format: functional, organism-based
Rattus norvegicus [13] = test: Antidiabetic activity in Zucker fa/fa rat assessed as HOMA-insulin resistance index at 1 mg/kg/day; format: functional, organism-based
Mus musculus [14] = test: Increase in plasma HDLC level in human ApoA1 transgenic mouse model at 0.3 mg/kg/day after 12 days by FPLC method; format: functional, organism-based
[15] = Total clearance in rat; format: ADME, organism-based; settings: in vivo
[16] = Bioavailability in cynomolgus monkey; format: ADME, organism-based, Macaca fascicularis; settings: in vivo
Mus musculus [17] = test: Antidiabetic activity in overnight fasted db/db mouse diabetic model assessed as reduction in blood glucose level at 0.3 mg/kg/day, po chronically for 12 days challenged with glucose 24 hrs post last dose by OGTT; format: functional, organism-based
Mus musculus [18] = test: Increase in plasma HDLC level in human ApoA1 transgenic mouse model at 3 mg/kg/day after 12 days by FPLC method; format: functional, organism-based
[19] = Half life in cynomolgus monkey; format: ADME, organism-based, Macaca fascicularis; settings: in vivo
[20] = Half life in rat; format: ADME, organism-based; settings: in vivo
[21] = Bioavailability in rat; format: ADME, organism-based; settings: in vivo
[22] = Total clearance in cynomolgus monkey; format: ADME, organism-based, Macaca fascicularis; settings: in vivo
Rattus norvegicus [23] = test: Antidiabetic activity in Zucker fa/fa rat assessed as glucose infusion rate at 1 mg/kg/day after 7 days by hyperinsulinemic-euglycemic clamp study; format: functional, organism-based
Mus musculus [24] = test: Antidiabetic activity in overnight fasted db/db mouse diabetic model assessed as reduction in blood glucose level at 3 mg/kg/day, po chronically for 12 days challenged with glucose 24 hrs post last dose by OGTT; format: functional, organism-based
Rattus norvegicus [25] = test: Antidiabetic activity in Zucker fa/fa rat assessed as fasting plasma insulin level at 1 mg/kg/day; format: functional

Row | Structure (SMILES) | IC50 [5] [nM] | EC50 [6] [nM] | other results
1 | CN(CCOc1ccc(CC2SC(=O)NC2=O)cc1)c1ccccn1 (stereo not given) |  |  | Activity (Mus musculus [1]): Active; Activity (Rattus norvegicus [2]): Active; Activity (Mus musculus [3]): Active; Activity (Rattus norvegicus [4]): Active
2 | CO[C@@H](Cc1ccc(OCCc2nc(-c3ccccc3)oc2C)c2sccc12)C(=O)O | 28 | 157 | EC50 [7]: 137 nM
3 | COC(Cc1ccc(OCCc2nc(-c3ccccc3C)oc2C)c2ccccc12)C(=O)O (racemic) | 432 | 123 | 
4 | CC(=O)c1ccccc1N[C@@H](Cc1ccc(OCCc2nc(-c3ccccc3)oc2C)cc1)C(=O)O | 633 | 284 | Activity (Rattus norvegicus [8]): 776 ng/mL; Activity (Mus musculus [9]): inactive; Activity (Rattus norvegicus [10]): Active; Activity (Rattus norvegicus [11]): Active
5 | CCO[C@@H](Cc1ccc(OCCc2nc(-c3ccccc3)oc2C)c2ccccc12)C(=O)O | 198 | 11 | EC50 [7]: 169 nM
6 | CCO[C@@H](Cc1ccc(OCCc2nc(-c3ccccc3)oc2C)c2sccc12)C(=O)O | 333 | 58 | 
7 | CC(C)(Oc1ccc(C(=O)c2ccc(Cl)cc2)cc1)C(=O)O [FENOFIBRIC ACID] | 106000 | 69000 | Activity (Mus musculus [12]): Active
8 | Cc1oc(-c2ccc(-c3ccccc3)cc2)nc1CCOc1ccc(C[C@H](OCC(F)(F)F)C(=O)O)c2ccccc12 | 429 | 987 | 
9 | CO[C@@H](Cc1ccc(OCCc2nc(-c3ccccc3)oc2C)c2ccsc12)C(=O)O [ALEGLITAZAR] |  |  | Activity (Rattus norvegicus [13]): Active; Activity (Mus musculus [14]): Active; clearance [15]: 6.2 mL/min/kg; bioavailability [16]: 68%; Activity (Mus musculus [1]): Active; Activity (Mus musculus [17]): Active; Activity (Mus musculus [18]): Active; half-life [19]: 12.9 h; half-life [20]: 4 h; Activity (Mus musculus [3]): Active; bioavailability [21]: 70%; clearance [22]: 1.6 mL/min/kg; Activity (Rattus norvegicus [23]): Active; Activity (Mus musculus [24]): Active; Activity (Rattus norvegicus [25]): 773 ng/mL
10 | CCCCCCOC(Cc1ccc(OCCc2nc(-c3ccccc3)oc2C)c2ccsc12)C(=O)O (racemic) | 120 | 249 | 
11 | CCCOC(Cc1ccc(OCCc2nc(-c3ccccc3)oc2C)c2ccccc12)C(=O)O (racemic) | 69 | 87 | 
12 | Cc1oc(-c2ccccc2)nc1CCOc1ccc(C[C@H](OCC2CC2)C(=O)O)c2sccc12 | 21 | 27 | 

Now from value to compound, other results behind:

Row | IC50 [5] [nM] | EC50 [6] [nM] | Structure (SMILES) | other results
13 | 194 | 167 | CCO[C@@H](Cc1ccc(OCCc2nc(-c3ccc(-c4ccccc4)cc3)oc2C)c2ccsc12)C(=O)O | 
14 | 37 | 16 | Cc1oc(-c2ccc(C(C)C)cc2)nc1CCOc1ccc(C[C@H](OCC2CC2)C(=O)O)c2sccc12 | 
15 | 45 | 20 | CO[C@@H](Cc1ccc(OCCc2nc(-c3ccc(C(C)C)cc3)oc2C)c2ccsc12)C(=O)O | 
16 | 239 | 48 | Cc1oc(-c2ccccc2)nc1CCOc1ccc(CC(OCC(C)C)C(=O)O)c2sccc12 (racemic) | 
17 | 53 | 2 | CO[C@@H](Cc1ccc(OCCc2nc(-c3ccc(C(F)(F)F)cc3)oc2C)c2ccsc12)C(=O)O | 
18 | 905 | 11 | CCO[C@@H](Cc1ccc(OCCc2nc(-c3ccc(C(F)(F)F)cc3)oc2C)c2ccccc12)C(=O)O | 
19 | 48 | 61 | COc1cc(OC)cc(-c2nc(CCOc3ccc(C[C@H](OC)C(=O)O)c4sccc34)c(C)o2)c1 | EC50 [7]: 678 nM
20 | 60 | 555 | Cc1oc(-c2ccccc2)nc1CCOc1ccc(C[C@H](OCC(F)(F)F)C(=O)O)c2sccc12 | 
21 | 63 | 89 | CCO[C@@H](Cc1ccc(OCCc2nc(-c3ccc(C(F)(F)F)cc3)oc2C)c2ccsc12)C(=O)O | 
